Source: US20030054029A1, “IIB/IIIA ANTAGONISTS CO-ADMINISTERED WITH ASPIRIN” (priority 1997, published 2003)
Where “and” joins values, the source holds several entries; their conditions need not be identical. Equal entries are not always repeated.

What was measured:
[1] = tested on: occlusive thrombus in left circumflex coronary artery (LCCA); experiment: Anesthetized canine model of coronary thrombosis (anodal current stimulation of the LCCA); assay type: in vivo, dog
Description: Sixty-six mongrel dogs of either sex weighing between 14 and 26 kg were anesthetized by intravenous administration of pentobarbital sodium solution (30 mg/kg). A supplemental dose of the anesthetic (65 to 130 mg) was administered as required. The dogs were endotracheally intubated and placed on a respirator (Biological Research Apparatus, Comerio-Varese, Italy) with the stroke volume adjusted to 20 ml/kg and a frequency of 12 breaths/minute. Peripheral arterial blood pressure was monitored with a pressure transducer (Micron Instruments, Simi Valley, Calif.) connected to a catheter placed in the right femoral artery. A catheter was inserted into the right femoral vein for withdrawing blood samples and another was inserted into the left jugular vein for administering intravenous fluids. A left thoracotomy was performed in the fifth intercostal space and the heart was suspended in a pericardial cradle. A 2 to 3-cm segment of the left circumflex coronary artery (LCCA) was isolated distal to the first diagonal branch. The small intervening coronary branches over the isolated segment were ligated. The artery was instrumented from proximal to distal with an ultrasonic flow probe, a stimulation electrode, and a Goldblatt clamp. The flow probe was connected to a Doppler flow meter (Crystal Biotech, Hopkinton, Mass.) in order to monitor the mean and the phasic LCCA blood flow velocities. The stimulation electrode and its placement in the LCCA and the methodology to induce an occlusive coronary thrombus are described in detail in Mickelson et al. Circulation, 1990; 81:617-627; Shebuski et al., Circulation, 1990; 82:169-177; and Tschopp et al., Coronary Artery Des., 1993; 4:809-817. Briefly, the needle tip of the electrode was inserted into the LCCA, ensuring its contact with the intraluminal surface of the vessel just under the Goldblatt clamp. The clamp was adjusted to reduce the peak reactive hyperemia following a 10-second period of total occlusion, without affecting the baseline mean LCCA blood flow velocity. Continuous recordings of blood pressure and LCCA blood flow velocity (mean and phasic) were obtained on a multichannel recorder (Gould Inc., Cleveland, Ohio).
Approximately 30 minutes after the preparation of the dogs, the study was continued by the administration of one of the treatments presented in Table 2.
The 0.6×SCa, 0.5×SCa and 0.4×SCa doses in Table 2 represent the reduced doses of the highest dose of SCa tested. Each dog was utilized only once. At 30 minutes, the stimulation electrode was then connected in series with a 12 K Ohms-112 K Ohms variable resistor to the positive terminal of a 9-V battery. The electrical circuit was completed by securing a needle electrode into a subcutaneous site and to the negative terminal of the battery. The anodal current delivered to the tip of the stimulation electrode was monitored and maintained at 250 μA. The number and the frequency of cyclic flow variations (CFV) that preceded the formation of an occlusive thrombus were recorded. CFV were observed as spontaneous shifts in mean and phasic LCCA blood flow velocity, with the sudden return of these variables to baseline. Proper positioning of the electrode in the LCCA was confirmed by visual inspection at the end of the experiment. Each experiment lasted for 180 minutes of anodal current unless the dog died after an occlusive thrombus was formed.

[2] = tested on: Dog PRP platelet aggregation; experiment: In-Vitro Platelet Aggregation in PRP (ADP-induced); assay type: cell-based; conditions: Canis lupus familiaris; ADP 50 um final concentration, dog platelet-rich plasma
Description: Healthy male or female dogs were fasted for 8 hours prior to drawing blood; then 30 ml whole blood was collected using a butterfly needle and 30 cc plastic syringe with 3 ml of 0.129 M buffered sodium citrate (3.8%). The syringe was rotated carefully as blood was drawn to mix the citrate. Platelet-rich plasma (PRP) was prepared by centrifugation at 975×g for 3.17 minutes at room temperature allowing the centrifuge to coast to a stop without braking. The PRP was removed from the blood with a plastic pipette and placed in a plastic capped, 50 mL Corning conical sterile centrifuge tube which was held at room temperature. Platelet poor plasma (PPP) was prepared by centrifuging the remaining blood at 2000×g for 15 minutes at room temperature allowing the centrifuge to coast to a stop without braking. The PRP was adjusted with PPP to a count of 2-3×10^8 platelets per mL. 400 uL of the PRP preparation and 50 uL of the compounds solution to be tested or saline were preincubated for 1 minute at 37° C. in an aggregometer (BioData, Horsham, Pa.). 50 uL of adenosine 5′ diphosphate (ADP) (50 um final concentration) was added to the cuvettes and the aggregation was monitored for 1 minute. All compounds are tested in duplicate. Results are calculated as follows: Percent of control=[(maximal OD minus initial OD of compound) divided by (maximal OD minus initial OD of control saline)]×100. […]

[3] = Bioassay for SCa plasma levels; assay type: in vivo; conditions: steady state, dog plasma, mean ± SEM
Description: SCa plasma levels were determined from the blood samples used for platelet aggregation. Plasma levels of SCa were measured using a modification of a bioassay method previously described in Salyers et al., Throm. Res., 1994, 75:409-417. The bioassay used plasma from treated dogs as the source of inhibitor to be tested in vitro against normal (naive) platelets from donor dogs. Briefly, PRP from non-treated dogs was added to wells containing plasma samples from treated dogs in a 96 well microtiter plate. ADP (20 μM) was added to the platelet suspension in each well to induce aggregation. Optical density at 405 nanometers was measured on all wells simultaneously in a platereader (Thermomax microplate reader, Molecular Devices, Menlo Park, Calif.). The results were quantified by comparison to a standard inhibition curve prepared in plasma using known amounts of SCa.

[4] = tested on: collagen-induced platelet aggregation; experiment: Ex vivo collagen-induced platelet aggregation in PRP of treated dogs; design: species or system dog; conditions: mean±SEM
Description: Peripheral venous blood was collected into citrated Vacutainer tubes (containing 0.3 ml of 3.8% sodium citrate solution) and platelet-rich plasma (PRP) was obtained by centrifugation (model Technospin R, Sorvall Instruments, DuPont, Wilmington, Del.) the blood at 266×g for 6 minutes at 24° C. Platelet-poor plasma (PPP) was obtained by further centrifugation at 2000×g for 10 minutes at 24° C. Samples were assayed on an aggregometer (model PAP-4, Bio/Data Corporation, Hatboro, Pa.) with PPP as the blank. The aggregations were performed by adding 50 μl of collagen ([…] final concentration) to 450 μl of PRP and measuring aggregation for 3 minutes. Blood samples used in platelet aggregation were collected at the following time periods: before treatment administration (baseline), immediately before anodal stimulation (at 30 minutes), at 60 minutes, then at 1-hour intervals to the end of experimentation. The blood samples at 60, 120 and 180 minutes were averaged (since the three blood samples yielded similar data) to obtain the steady-state platelet inhibition value for all comparisons except for saline and heparin (since no 120-minute sample was taken, 60 and 180 minute samples were used). Results are expressed as percent inhibition and represent steady-state conditions.

[5] = no SCa, ASA 2.8 mg/kg iv bolus, heparin 200 units/kg bolus then 1000 units/hour
[6] = no SCa, ASA 2.8 mg/kg iv bolus, heparin 200 units/kg bolus then 1000 units/hour, mean±SEM, n=6
[7] = no SCa, ASA 2.8 mg/kg iv bolus, heparin 200 units/kg bolus then 1000 units/hourly, mean ± SEM, n=6/group
[8] = no SCa, ASA 2.8 mg/kg iv bolus, heparin 200 units/kg bolus then 1000 units/hourly, n=6/group
[9] = 0.6 × SCa (0.52//0.23 μg/kg/min iv)
[10] = 1 × SCa (0.87//0.39 μg/kg/min iv)
[11] = 0.6 × SCa (0.52//0.23 μg/kg/min iv), mean±SEM, n=6

CC(=O)Oc1ccccc1C(=O)O [ASA, acetylsalicyclic acid, reference compound]
occurrence of thrombosis (occlusive thrombus) in dogs ([1]; no SCa, ASA 2.8 mg/kg iv bolus, 180 minutes of anodal current, n=6): did occur before the completion of the 180 minutes of current in all of the dogs | effectiveness in the thrombosis model [1, 5]: not effective | time to zero flow [1, 6]: 64 ± 7 min | Mean CFV/Minute (×100) [1, 7]: 6 ± 2 CFV/Minute (×100) | Number of Dogs with CFV [1, 8]: 6/6

C#C[C@H](CC(=O)OCC)NC(=O)CCC(=O)Nc1ccc(C(=N)N)cc1 [Example 1, Ethyl 3S-[[4-[[4-(aminoiminomethyl)phenyl]-amino]-1,4-dioxobutyl]amino]-4-pentynoate]
IC50 [2]: 4.6 µM

C#C[C@H](CC(=O)O)NC(=O)CCC(=O)Nc1ccc(C(=N)N)cc1 [Example 2]
Plasma Level of SCa ([3]; 0.5 × SCa (0.425//0.20 μg/kg/min iv)): 35 ± 8 ng/mL | Plasma Level of SCa [3, 9]: 48 ± 7 ng/mL | Plasma Level of SCa [3, 10]: 57 ± 4 ng/mL | IC50 [2]: 0.07 µM | dogs with occlusive thrombus / LCCA thrombosis ([1]; 0.5 × SCa (0.425//0.20 μg/kg/min iv) alone or with ASA and/or heparin, 180 minutes of anodal current, n=6/group): 4 of 6 | Mean CFV/Minute (×100) ([1]; 0.5 × SCa (0.425//0.20 μg/kg/min iv) alone or with ASA and/or heparin, mean ± SEM, n=6/group): 5 ± 1 CFV/Minute (×100) | Number of Dogs with CFV ([1]; 0.5 × SCa (0.425//0.20 μg/kg/min iv) alone or with ASA and/or heparin, n=6/group): 6/6 | time to zero flow ([1]; 0.5 × SCa (0.425//0.20 μg/kg/min iv), mean±SEM, n=6): 130 ± 22 min | Mean CFV/Minute (×100) [1, 11]: 3 ± 1 CFV/Minute (×100) | time to zero flow [1, 11]: 158 ± 15 min | Number of Dogs with CFV ([1]; 0.6 × SCa (0.52//0.23 μg/kg/min iv), n=6): 4/6 | occurrence of thrombosis (occlusive thrombus) in dogs ([1]; 1 × SCa (0.87//0.39 μg/kg/min iv), 180 minutes of anodal current, n=6): did not occur in any of the dogs | Mean CFV/Minute (×100) ([1]; 1 × SCa (0.87//0.39 μg/kg/min iv), during anodal stimulation of the LCCA, mean ± SEM, n=6): 0.7 ± 0.7 CFV/Minute (×100) | Number of Dogs with CFV ([1]; 1 × SCa (0.87//0.39 μg/kg/min iv), n=6, listed as SCa): 1 of 6 and 1/6 | time to zero flow ([1]; 1 × SCa (0.87//0.39 μg/kg/min iv, loading 15 min // maintenance), 180 min = end of protocol with no occlusion, mean±SEM, n=6): 180 ± 0 min | steady-state inhibition of platelet aggregation (Percent Inhibition) ([4]; 0.5 × SCa (0.425//0.20 μg/kg/min iv) alone or with ASA 2.8 mg/kg bolus and/or heparin 200 units/kg + 1000 units/hour): 70±4% | steady-state inhibition of platelet aggregation (Percent Inhibition) [4, 9]: 83±3% | steady-state inhibition of platelet aggregation (Percent Inhibition) [4, 10]: 92±5%

Heparin [reference compound]
effectiveness in the thrombosis model [1, 5]: not effective | time to zero flow [1, 6]: 114 ± 16 min | Mean CFV/Minute (×100) [1, 7]: 5 ± 1 CFV/Minute (×100) | Number of Dogs with CFV [1, 8]: 6/6 | steady-state inhibition of platelet aggregation [4, 5]: 13±2%
